Measured values: patent US20230265037A1, “METHOD FOR MAN[…] CALCIUM CITRATE BY USING SHELL AND APPLICATION THEREOF” (KOREA RESEARCH INSTITUTE OF CHEMICAL TECHNOLOGY, priority 2020, published 2023)
“And” between values parts separate entries of the source, which are not always exact repeats. Equal entries are not always repeated.

Assay: Fluorine removal experiment (residual fluorine concentration of filtrate by ion concentration meter)
Conditions: for removal rate: HF solution 1,000 ppm (experimental value 970 ppm), reacted 30 minutes
Description: In order to confirm the fluorine removal rate using the powder or solution prepared in Examples 1 to 3, a fluorine removal experiment was performed by the following method, and the residual fluorine concentration of the filtrate remaining after the experiment was measured using an ion concentration meter and is shown in Tables 2 to 4. At this time, a Metrohm 930 compact IC Flex model from Metrohm was used as the ion concentration meter.
A 50% hydrofluoric acid (HF) solution with a concentration of 1,000 ppm was prepared, and so that the molar ratio of calcium ion:fluoride ion is 1:2, 2:2, 10.56 g and 21.12 g of the mono calcium citrate powder recovered in Example 1 were mixed with 1 L of water to make a solution, the hydrofluoric acid and the solution were reacted for 30 minutes, and the results are shown in Table 2.
A 50% hydrofluoric acid (HF) solution with a concentration of 1,000 ppm was prepared, 4.75 g, 9.5 g, and 19.1 g of the tricalcium citrate powder recovered in Example 2 were mixed with 1 L of water so that the molar ratio of calcium ion:fluoride ion was 1:2, 2:2, and 4:2 to form a slurry, the hydrofluoric acid and the slurry were reacted for 30 minutes, and the results are shown in Table 3. (Tricalcium citrate (C12H10Ca3O14) contains 3 moles of calcium ions per mole, so ⅓ of the theoretical amount is added.)
A 50% hydrofluoric acid (HF) solution with a concentration of 1,000 ppm was prepared, the solution in which the shells and citric acid were dissolved prepared in Example 3 was mixed with 1 L of water and reacted for 30 minutes, and the results are shown in Table 4.

[1] = molar ratio calcium ion:fluoride ion 1:2
[2] = molar ratio calcium ion:fluoride ion 2:2

For O=C([O-])CC(O)(CC(=O)O)C(=O)O.O=C([O-])CC(O)(CC(=O)O)C(=O)O.[Ca+2] [Example 1, mono calcium citrate], the removal rate [1] was 99.25%, the removal rate [2] was 99.77% and the “fluorine removal rate (summary)” value (summary of Tables 2 and 3) was ≥ 99%.
In the case of O=C([O-])CC(O)(CC(=O)[O-])C(=O)[O-].O=C([O-])CC(O)(CC(=O)[O-])C(=O)[O-].[Ca+2].[Ca+2].[Ca+2] [Example 2, tricalcium citrate], the removal rate [1] is reported as 97.63%, the removal rate [2] is reported as 98.33% and the removal rate (molar ratio calcium ion:fluoride ion 4:2) is reported as 98.28% and 98.29%.
